Test results: patent publication US20100015164A1, “Compositions and Methods for Modulating Osteoblast Cell Differentiation and Bone Generation Through HIF-1a” (THE UAB RESEARCH FOUNDATION, priority 2005, published 2010)
“Also recorded” adds a separate entry of the source.

Experiments:
HIF-1α [1] = test: Western blotting of nuclear protein for HIF-1α in primary osteoblasts exposed to cobalt; format: cell-based, mouse; settings: primary osteoblast cultures; 5, 10, or 50 ng/ml cobalt; 0, 3, 6, 12, and 24 hours of exposure
Excerpt: The class of PHDs acting on HIF-1α require oxygen, iron, and 2-oxyglutarate as co-factors. Small molecules that block these enzymes are iron chelators, such as cobalt and desferrioxamine, or 2-oxyglutarate analogs such as L-mimosinc and 3,4 DHB, and DMOG. A schematic of the PHD enzyme and the structures of the 2-oxyglutarate analogs is reproduced in FIG. 5. A number of previous studies have shown an increase of VEGF and other HIF-1α target genes in cells treated with the small molecule PHD inhibitors selected here. Because the effects of the PHD inhibiting agents have not been tested in primary osteoblasts, studies were performed to evaluate their ability to increase HIF-1α. Osteoblasts were grown to near confluence, and then exposed to varying concentrations of cobalt chloride. At time zero, and after 3, 6, 12, and 24 hours of exposure, the cells were harvested and nuclear protein was extracted.

VEGF = VEGF mRNA expression by real time PCR in osteoblasts exposed to cobalt chloride; format: cell-based, mouse; settings: 5, 10, or 50 ng/mL cobalt chloride, 3, 12, or 24 hours
Experimental: The osteoblasts were exposed to 5, 10, or 50 ng/mL of cobalt chloride. After, 3, 12, or 24 hours, cells were harvested and mRNA was collected. Real time PCR was performed with β-actin as control. […] Additionally, they lend support to the approach of using VEGF upregulation as assessed by real time PCR as a surrogate for HIF-1α activation in initial screening rather than the more time consuming approach of western blotting for HIF-1α.

HIF-1α [2] = settings: in vitro and in vivo, published studies; cited from earlier work

SMILES	nuclear HIF-1α (Western blot of nuclear extracts) (HIF-1α [1])	VEGF mRNA expression (real time PCR, β-actin as control) (VEGF)	VEGF mRNA expression (real time PCR, β-actin as control) (VEGF; listed as cobalt)	HIF-1α activation (HIF-1α [2])
[Cl][Co][Cl] [cobalt chloride]	time and dose dependent increase in nuclear HIF-1α; also recorded: increased nuclear accumulation after cobalt treatment at all doses	Marked upregulation of VEGF expression	Marked upregulation of VEGF was seen after 12 and 24 hours	increase HIF-1α activation in vitro and in vivo
CC(=O)N(O)CCCCCNC(=O)CCC(=O)N(O)CCCCCNC(=O)CCC(=O)N(O)CCCCCN [desferrioxamine]				increase HIF-1α activation in vitro and in vivo
